Laboratory results published in patent US8962600B2, “Neuroprotective compounds and their use” (The Medical College of Wisconsin, Inc., priority 2009, dated 2015).

How the values were obtained:
Assay type in all cases: in vivo, C57BL/6 mice
GFAP = GFAP expression in substantia nigra (astroglial activation), immunostaining; conditions: diapocynin 300 mg/kg gavage, 1 day pre-treatment + 4 days co-treatment with MPTP 25 mg/kg i.p.
Description: (§1) For checking inflammatory and oxidative stress markers, mice were gavaged diapocynin (300 mg/kg dose) 1 day before MPTP treatment (pre-treatment) and continued for another 4 days of co-treatment with MPTP. In the sub-acute MPTP regimen, MPTP (25 mg/kg) was injected intraperitoneally once per day from day 2 to day 7. Control mice received saline at the same dosage.
(§2) Four days after MPTP treatment, mice were perfused with 4% paraformaldehyde (PFA) and post-fixed with PFA and 30% sucrose, respectively. Next, fixed brains were cut into 30 μm sections and kept in 30% sucrose-ethylene glycol solutions at −20° C. On the day of staining, sections were rinsed with phosphate-buffered saline (PBS) and incubated with different primary antibodies, including anti-IBA-1 (DAKO, Carpinteria, Calif.), anti-GFAP (Millipore, Billerica, Mass.), anti-iNOS (Santa Cruz Biotechnology, Santa Cruz, Calif.), anti-3NT (Millipore), anti-4HNE (R&D Systems, Minneapolis, Minn.) and anti-gp91phox (Santa Cruz Biotechnology) for overnight at 4° C. Appropriate secondary antibodies (Alexa Fluor 488, 594, or 555 from Invitrogen, Carlsbad, Calif.) were used followed by incubation with 10 μg/ml Hoechst 33342 for 5 min at room temperature to stain the nucleus. Sections were viewed under a Nikon inverted fluorescence microscope (model TE-2000U; Nikon, Tokyo, Japan). […]

gp91phox = gp91phox expression in substantia nigra, Western blot and DAB immunostaining
Description: as §1, §2

4-hydroxynonenol (4-HNE) = assay: 4-hydroxynonenol expression in substantia nigra, Western blot and immunostaining
Description: as §1, §2

[1] = tested on: inducible nitric oxide synthase (iNOS/NOS2); assay: iNOS expression in substantia nigra, Western blot and immunostaining; conditions: MPTP-treated mice that also received diapocynin 300 mg/kg gavage
Description: as §1
Four days after MPTP treatment, mice were perfused with 4% paraformaldehyde (PFA) and post-fixed with PFA and 30% sucrose, respectively. Next, fixed brains were cut into 30 μm sections and kept in 30% sucrose-ethylene glycol solutions at −20° C. On the day of staining, sections were rinsed with phosphate-buffered saline (PBS) and incubated with different primary antibodies, including anti-IBA-1 (DAKO, Carpinteria, Calif.), anti-GFAP (Millipore, Billerica, Mass.), anti-iNOS (Santa Cruz Biotechnology, Santa Cruz, Calif.), anti-3NT (Millipore), anti-4HNE (R&D Systems, Minneapolis, Minn.) and anti-gp91phox (Santa Cruz Biotechnology) for overnight at 4° C. Appropriate secondary antibodies (Alexa Fluor 488, 594, or 555 from Invitrogen, Carlsbad, Calif.) were used followed by incubation with 10 μg/ml Hoechst 33342 for 5 min at room temperature to stain the nucleus. Sections were viewed under a Nikon inverted fluorescence microscope (model TE-2000U; Nikon, Tokyo, Japan). Images were captured with a SPOT digital camera (Diagnostic Instruments, Inc., Sterling Heights, Mich.).
Mice were sacrificed 4 days or 7 days after MPTP treatment and substantia nigra tissue was dissected out. Brain lysates containing equal amounts of protein were loaded in each lane and separated on a 10 to 12% SDS polyacrylamide gel, as described previously (48). After the separation, proteins were transferred to a nitrocellulose membrane and nonspecific binding sites were blocked by treating with Li-Cor Odyssey blocking buffer (Li-Cor Biosciences, Lincoln, Nebr.). The membranes were then incubated with different primary antibodies including anti-TH (Millipore), anti-iNOS (Calbiochem), anti-3NT (Millipore) and anti-4HNE (R&D Systems). […]

MPTP-intoxicated mice = assay: Open Field locomotor activity in MPTP-injected mice; conditions: MPTP- and diapocynin-treated mice; 300 mg/kg oral gavage; 5 days after last MPTP injection; 10 min session
Description: Six- to 8-week-old C57BL/6 mice weighing 24 to 28 g were housed in standard conditions of constant temperature (22±1° C.), humidity (relative, 30%), and a 12-h light/dark cycle. Mice were allowed free access to food and water. Use of the animals and protocol procedures were approved and supervised by the Committee on Animal Care at Iowa State University (Ames, Iowa). For neurodegeneration studies, mice either received diapocynin (300 mg/kg dose) by oral gavage for 1 day (pre-treatment before MPTP administration), 5 days (co-treatment with MPTP), or 7 days (post-treatment after MPTP).
Two types of behavioral tests were performed including an Open Field experiment for testing locomotor activities and a Rotarod experiment to test coordination of movement of mice after MPTP and diapocynin treatment (48, 56). An Open Field activity monitor (model RXYZCM-16; AccuScan, Columbus, Ohio) was used to measure the spontaneous activity of mice. The activity chamber was 40×40×30.5 cm, made of clear PLEXIGLAS® and covered with a PLEXIGLAS® lid with holes for ventilation. Infrared monitoring sensors were located every 2.54 cm along the perimeter (16 infrared beams along each side) and 2.5 cm above the floor. Two additional sets of 16 sensors were located 8.0 cm above the floor on opposite sides. Data were collected and analyzed by a VersaMax Analyzer (model CDA-8, AccuScan). […]

## COc1cc(C(C)=O)cc(-c2cc(C(C)=O)cc(OC)c2O)c1O [diapocynin]
GFAP
  GFAP protein expression in substantia nigra: inhibition
gp91phox; diapocynin 300 mg/kg gavage, MPTP 25 mg/kg i.p., Western blot and DAB immunostaining
  MPTP-induced expression of gp91phox in substantia nigra: attenuated
gp91phox; double-labeling, mice treated with MPTP and diapocynin 300 mg/kg
  colocalization of gp91phox with IBA-1 positive cells: no colocalization
4-hydroxynonenol (4-HNE); diapocynin 300 mg/kg gavage, MPTP 25 mg/kg i.p., Western blot and immunostaining
  MPTP-induced increase in expression of 4-HNE in substantia nigra: attenuated
4-hydroxynonenol (4-HNE); double-label immunostaining, MPTP- and diapocynin-treated mice
  colocalized cells of TH and 4-HNE in substantia nigra: very few colocalized cells
[1]
  colocalized cells of iNOS and GFAP in substantia nigra: very few colocalized cells
  colocalized cells of iNOS and IBA-1 in substantia nigra: very few colocalized cells
  staining of iNOS in substantia nigra: marked decrease
MPTP-intoxicated mice
  horizontal activity (Open Field): significantly improved
  vertical activity (Open Field): significantly improved
